Source: patent US12435091B2, “RNA-binding protein multimerization inhibitors and methods of use thereof” (THE UAB RESEARCH FOUNDATION, priority 2020, dated 2025)

Key:
[1] = system: JX12p neurospheres, HuR mRNA targets; assay: Illumina global RNA-sequencing of PDGx neurospheres; assay type: cell-based; conditions: 3 uM, 12 hours, compared to control
Protocol: (§1) Illumina global RNA-sequencing data were generated by utilizing PDGx neurospheres, which have been treated with a compound as described herein (e.g., SRI-42127, 3 uM) for 12 hours or with vehicle as the control. RNA was isolated by using TRIzol reagent (Invitrogen; Carlsbad, CA). The RNA samples were processed.
(§2) RNA sequencing was performed on PDGx-derived glioma neurospheres representing the different molecular subtypes (classical, neuronal, and mesenchymal) after treatment with vehicle (control) or SRI-42127 (3 uM) for 12 hours. Analysis of direct HuR mRNA targets and their corresponding cell signaling pathways was performed. Table 9 illustrates the evaluated gene sets, representing direct HuR mRNA targets, and their corresponding cell signaling pathways.
(§3) The analysis of direct HuR mRNA targets and their corresponding cell signaling pathways has been performed by using gene sets, which have been defined as the direct HuR targets following tumor neurosphere treatment with DHTS, an established modulator of HuR/mRNA interaction (Lal et al., Nucleic Acid Research, 2017). […] Data are represented as average+standard deviation (Aver+SD). The significance was evaluated by using Student t-test.
(§4) The analysis was generated based on RNA-Seq data.

[2] = system: JX22p neurospheres, HuR mRNA targets; assay: as above; assay type: cell-based; conditions: 3 uM, 12 hours, compared to control
Protocol: as §1, §2, §3, §4

[3] = system: allodynia after spared nerve injury; assay: spared nerve injury (sciatic nerve) model, mechanical sensitivity (Von Frey); assay type: in vivo; conditions: acute administration to DMSO-treated mice at day 7
Protocol: Wild-type male mice were subjected to a mid-thoracic contusion injury and then treated with SRI-42127 (15 mg/kg) every 8 hours for 4 days, starting 1 hour after injury. […] Not to be bound by theory, similar to spinal cord injury, chronic pain signaling is triggered by activation of microglia and astroglia in the spinal cord and production of inflammatory mediators (e.g. TNF-α, IL-1β, IL-6, INOS, CCL2) that induce hyperexcitation of sensory neurons in the dorsal horn. Mice underwent sciatic nerve lesioning to produce a spared nerve injury and then received SRI-42127 (15 mg/kg) or vehicle every 6 hours for 4 days (starting 1 h after injury). Mechanical sensitivity was assessed at day 7 post-injury. […] Following this test, a subset of mice in the DMSO-treated group was given an acute administration of SRI-42127 (or DMSO) and their mechanical sensitivity was tested at 30 minutes and 60 minutes post-administration. Acute treatment with SRI-42127 reversed allodynia in these mice for at least 60 minutes (p<0.01, FIG. 21, Panel D).

## CN(c1ccc2ncc(-c3ccc4cn[nH]c4c3)n2n1)C1CCOCC1 [Compound 19]
[1]
  gene set average value, Activation of BH3-only proteins Homo sapiens_R-HSA-114452: 0.90
  gene set average value, Cell Cycle Check points_Homo Sapiens_R-HSA-69620: 0.58
  gene set average value, Cell Cycle, Mitotic_Homo Sapiens_R-HSA-69278: 0.58
  gene set average value, Cell Cycle_Homo sapiens_R-HSA-1640170: 0.57
  gene set average value, Cell cycle_Homo Sapiens_hsa04110: 0.64
  gene set average value, Cellular Senescence_Homo sapiens_R-HSA-2559583: 0.74
  gene set average value, Cellular responses to Stress_Homo sapiens_R-HSA-2262752: 0.61
  gene set average value, Deadenylation-dependent mRNA decay_Homo sapiens_R-HSA-429914: 0.71
  gene set average value, Developmental Biology_Homo sapiens_R-HSA-1266738: 0.52
  gene set average value, Epstein-Barr virus Infection_Homo Sapiens_hsa05169: 0.63
  gene set average value, G2/M Check points_Homo sapiens_R-HSA-69481: 0.60
  gene set average value, G2/M DNA damage Checkpoint_Homo sapiens_R-HSA-69473: 0.61
  gene set average value, Gene Expression_Homo Sapiens_R-HSA-2559583: 0.78
  gene set average value, HTLV-1 infection_Homo Sapiens_hsa05186: 0.67
  gene set average value, Intrinsic Pathway for Apoptosis_Homo sapiens_R-HSA-109606: 0.90
  gene set average value, MAPK signaling Pathway_Homo Sapiens_hsa04010: 0.63
  gene set average value, Membrane Trafficking_Homo sapiens_R-HAS-199991: 0.62
  gene set average value, Mitotic G1-G1/S phases_Homo sapiens_R-HSA-453279: 0.58
  gene set average value, P53 signaling pathway_Homo Sapiens_hsa04115: 1.21
  gene set average value, RHO GTPases Activate Formins_Homo sapiens_R-HSA-5663220: 0.48
  gene set average value, RHO GTPases Effectors_Homo sapiens_R-HSA-195258: 0.50
  gene set average value, RNA degradation_Homo Sapiens_hsa03018: 0.78
  gene set average value, Regulation of TP53 Activity through Phosphorylation_Homo sapiens_R-HSA-6804756: 0.63
  gene set average value, Regulation of TP53 Activity_Homo sapiens_R-HSA-109606: 0.89
  gene set average value, Signaling by Rho GTPases_Homo sapiens_R-HSA-194315: 0.49
  gene set average value, TP53 Regulates Metabolic Genes_Homo sapiens_R-HSA-5628897: 0.87
  gene set average value, Transcriptional Regulation by TP53_Homo sapiens_R-HSA-3700989: 0.93
  gene set average value, Translocation of GLUT4 to the plasma membrane_Homo sapiens_R-HSA-1445148: 0.71
[2]
  gene set average value, Activation of BH3-only proteins Homo sapiens_R-HSA-114452: 0.42
  gene set average value, Cell Cycle Check points_Homo Sapiens_R-HSA-69620: 0.35
  gene set average value, Cell Cycle, Mitotic_Homo Sapiens_R-HSA-69278: 0.32
  gene set average value, Cell Cycle_Homo sapiens_R-HSA-1640170: 0.36
  gene set average value, Cell cycle_Homo Sapiens_hsa04110: 0.37
  gene set average value, Cellular Senescence_Homo sapiens_R-HSA-2559583: 0.28
  gene set average value, Cellular responses to Stress_Homo sapiens_R-HSA-2262752: 0.27
  gene set average value, Deadenylation-dependent mRNA decay_Homo sapiens_R-HSA-429914: 0.31
  gene set average value, Developmental Biology_Homo sapiens_R-HSA-1266738: 0.32
  gene set average value, Epstein-Barr virus Infection_Homo Sapiens_hsa05169: 0.43
  gene set average value, G2/M Check points_Homo sapiens_R-HSA-69481: 0.39
  gene set average value, G2/M DNA damage Checkpoint_Homo sapiens_R-HSA-69473: 0.39
  gene set average value, Gene Expression_Homo Sapiens_R-HSA-2559583: 0.37
  gene set average value, HTLV-1 infection_Homo Sapiens_hsa05186: 0.47
  gene set average value, Intrinsic Pathway for Apoptosis_Homo sapiens_R-HSA-109606: 0.42
  gene set average value, MAPK signaling Pathway_Homo Sapiens_hsa04010: 0.31
  gene set average value, Membrane Trafficking_Homo sapiens_R-HAS-199991: 0.28
  gene set average value, Mitotic G1-G1/S phases_Homo sapiens_R-HSA-453279: 0.36
  gene set average value, P53 signaling pathway_Homo Sapiens_hsa04115: 0.24
  gene set average value, RHO GTPases Activate Formins_Homo sapiens_R-HSA-5663220: 0.26
  gene set average value, RHO GTPases Effectors_Homo sapiens_R-HSA-195258: 0.30
  gene set average value, RNA degradation_Homo Sapiens_hsa03018: 0.35
  gene set average value, Regulation of TP53 Activity through Phosphorylation_Homo sapiens_R-HSA-6804756: 0.34
  gene set average value, Regulation of TP53 Activity_Homo sapiens_R-HSA-109606: 0.31
  gene set average value, Signaling by Rho GTPases_Homo sapiens_R-HSA-194315: 0.30
  gene set average value, TP53 Regulates Metabolic Genes_Homo sapiens_R-HSA-5628897: 0.30
  gene set average value, Transcriptional Regulation by TP53_Homo sapiens_R-HSA-3700989: 0.31
  gene set average value, Translocation of GLUT4 to the plasma membrane_Homo sapiens_R-HSA-1445148: 0.40
[3]
  duration of reversal of allodynia after acute administration: at least 60 minutes
